Data: US8703161B2, “Skin repair compositions comprising circadian gene activators and a synergistic combination of Sirt1 gene activators” (ELC Management, LLC, priority 2007, dated 2014)
Ends that are not written are not given here.

Test system: UVB-irradiated human keratinocytes
Experiment: Survival of UVB-irradiated keratinocytes, MTS viability (Example 1)
Type: cell-based
Conditions: for decreased survival rate: 45 mJ/cm2 UV
Method: Orsirtine™ ((SEQ ID No. 8) G-L-Y-D-N-L-E) and resveratrol, […], were tested for their ability to improve survival of UVB-irradiated human keratinocytes.
Normal human keratinocytes were cultured in Epilife Medium with Human Keratinocyte Growth Supplement. The cells were sub-cultured into 96-well plates (Costar). Keratinocytes were pretreated with resveratrol (25 μM) and Orsirtine (1%, 3%) by themselves, and in a complex of resveratrol (25 μM) and Orsirtine™ (3%). Keratinocytes were treated with the undiluted complex and with dilutions of 1:2, 1:4 and 1:8 (complex: Epilife media).
Keratinocytes were incubated with these treatments overnight at 37° C.; 5% CO2. After 24 hours, the treatment was aspirated and keratinocytes were washed once in D-PBS. 100 μl of D-PBS was added for the irradiation. The cells were subjected to UVB irradiation at 0, 45, 90 and 135 mJ/cm^2 UVB. After the irradiation, D-PBS was removed. Keratinocytes were post treated appropriately and incubated overnight at 37° C.; 5% CO2. The next day, cells were assayed for viability, utilizing MTS reagent (CellTiter96, Promega). Absorbance readings were taken on the SpectraMax190 spectrophotometer (Molecular Devices) at 490 nm following an approximate two hour incubation at 37° C.; 5% CO2.

[1] = Orsirtine 3% alone, listed as Orsirtine ™

Row | Compound | decreased survival rate (just Orsirtine 3%) [%] | Increased survival after 90 mJ/cm^2 UV (Orsirtine 1% alone) [%] | Increased survival after 135 mJ/cm^2 UV (Orsirtine 1% alone) [%] | Increased survival after 90 mJ/cm^2 UV (Orsirtine 3% alone) [%] | Increased survival after 135 mJ/cm^2 UV (Orsirtine 3% alone) [%] | Increased survival after 90 mJ/cm^2 UV [1] [%] | Increased survival after 135 mJ/cm^2 UV [1] [%] | decreased survival rate (just resveratrol (25 μM)) [%] | Increased survival after 90 mJ/cm^2 UV (Resveratrol 25 μM alone) [%] | Increased survival after 135 mJ/cm^2 UV (Resveratrol 25 μM alone) [%] | decreased survivability (UVB of 90 mJ/cm^2, 25 μM Resveratrol by itself) [%]
1 | GLYDNLE [Orsirtine™, peptide G-L-Y-D-N-L-E, INCI Water (and) Glycerin (and) Oryza Sativa (Rice) Extract, from ISP Vincience] | 8 | −17 | 5 | 11 | 26 | 11 | 26 | – | – | – | –
2 | Oc1ccc(/C=C\c2cc(O)cc(O)c2)cc1 [Resveratrol, 3,5,4′-trihydroxystilbene, reference compound] | – | – | – | – | – | – | – | 20 | −15 | 22 | 15
